Results from US5250548A, “Angiotensin II receptor antagonists” (Abbott Laboratories, priority 1992, dated 1993).
Where a name gives a salt, the structure may show the parent alone.

test system: renal artery ligated rats; assay: In vivo blood pressure lowering in renal artery ligated hypertensive rats; design: species or system rat; conditions: dose of 30 mg/kg

Structure (SMILES) | reduction in mean arterial blood pressure (MAP)
CCCN(Cc1ccc(-c2ccccc2-c2nnn[nH]2)cc1)c1ncccc1C(=O)O [Example 88, 2-{N-Propyl-N-[(2'-[1H-tetrazol-5-yl]biphenyl-4-yl)methyl]amino}pyridine-3-carboxylic acid] | caused a reduction in mean arterial blood pressure (MAP)

test system: blood pressure; assay: not given; conditions: after intravenous administration; due to its activity as an angiotensin receptor agonist; cited from earlier work

Structure (SMILES) | effect on blood pressure
CNCC(=O)N[C@@H](CCCN=C(N)N)C(=O)N[C@H](C(=O)N[C@@H](Cc1ccc(O)cc1)C(=O)N[C@H](C(=O)N[C@@H](Cc1cnc[nH]1)C(=O)N1CCC[C@H]1C(=O)N[C@@H](C)C(=O)O)C(C)C)C(C)C [saralasin, [Sar^1,Ala^8] angiotensin II] | initial increase in blood pressure after intravenous administration

test system: angiotensin II receptor; assay: not given; conditions: cited from earlier work

Structure (SMILES) | antagonism of the actions of angiotensin II
CNCC(=O)N[C@@H](CCCN=C(N)N)C(=O)N[C@H](C(=O)N[C@@H](Cc1ccc(O)cc1)C(=O)N[C@H](C(=O)N[C@@H](Cc1cnc[nH]1)C(=O)N1CCC[C@H]1C(=O)N[C@@H](C)C(=O)O)C(C)C)C(C)C [saralasin, [Sar^1,Ala^8] angiotensin II] | potent antagonist of the actions of angiotensin II

test system: not given; assay: not given; conditions: cited from earlier work

Structure (SMILES) | oral bioavailability
CNCC(=O)N[C@@H](CCCN=C(N)N)C(=O)N[C@H](C(=O)N[C@@H](Cc1ccc(O)cc1)C(=O)N[C@H](C(=O)N[C@@H](Cc1cnc[nH]1)C(=O)N1CCC[C@H]1C(=O)N[C@@H](C)C(=O)O)C(C)C)C(C)C [saralasin, [Sar^1,Ala^8] angiotensin II] | very poor oral bioavailability

target: T1, angiotensin II receptor (Oryctolagus cuniculus, UniProt P34976); assay: Angiotensin II functional assay: antagonism of contraction of rabbit aorta (isolated tissue, Schild analysis); design: species or system rabbit (female New Zealand White); conditions: antagonist incubated 30 minutes, negative logarithm of antagonist concentration that requires doubling of the angiotensin II concentration
T1 construct: Main abdominal aortas were removed and placed in Krebs-Henseleit buffer; from tissue; host or cells: main abdominal aorta rings (3 mm) of female New Zealand White rabbits
T1 sequence (P34976 1-359): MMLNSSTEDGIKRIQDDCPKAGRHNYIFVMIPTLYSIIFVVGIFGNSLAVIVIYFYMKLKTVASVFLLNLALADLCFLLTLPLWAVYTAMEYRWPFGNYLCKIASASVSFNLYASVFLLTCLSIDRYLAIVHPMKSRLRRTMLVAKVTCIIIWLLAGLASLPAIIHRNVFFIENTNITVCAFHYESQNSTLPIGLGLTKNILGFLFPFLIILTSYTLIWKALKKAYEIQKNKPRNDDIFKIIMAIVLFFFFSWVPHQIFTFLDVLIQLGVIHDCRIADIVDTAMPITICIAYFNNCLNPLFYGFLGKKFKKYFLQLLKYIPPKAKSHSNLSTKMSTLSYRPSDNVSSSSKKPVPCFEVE
Procedure: Antagonism of Contraction of Rabbit Aorta The protocol reported by A. T Chiu and […]. Wong, et al. Hypertension, 13, 489-497 (1989)) was followed with a few modifications. Female New Zealand White rabbits weighing 2-5 kg were sedated with carbon dioxide and then sacrificed. Main abdominal aortas were removed and placed in Krebs-Henseleit buffer at room temperature. The tissues were cleaned of extraneous connective tissue, cut into 3 mm rings, and suspended within a 10 mL tissue bath. All dilutions of peptide preparations were made with 0.3% aqueous BSA. The tissues were primed with 55 mM potassium chloride. Tissues were pre-loaded with 1 g of tension. Tension was recorded on a model 7 Grass polygraph using FT03 transducers. At the end of the equilibrium period, a control cumulative concentration-contractile response curve for angiotensin II (A II: 1×10^-10 -10^-8 M) was obtained. The tissue was washed several times until the baseline was reached. Forty five minutes later, test compound (antagonist) was added and the tissue was incubated for 30 minutes. The concentration-response curve for A II was then repeated in the presence of the test compound. One dose of antagonist was tested per tissue only. […] All responses to the control agonist were calculated as a percentage of the maximum response.

pA2 | Structure (SMILES)
8.93 | O=C(O)c1cccnc1N(Cc1ccc(-c2ccccc2-c2nn[nH]n2)cc1)CC1CC1 [Example 206, 2-{N-Cyclopropylmethyl-N-[ (2'-[1H-tetrazol-5-yl]biphenyl-4-yl)methyl]amino}pyridine-3-carboxylic acid]
9.60 | CCCN(Cc1ccc(-c2ccccc2-c2nnn[nH]2)cc1)c1nc(C)ncc1C(=O)O [Example 99, 2-Methyl-4-{N-propyl-N-[(2'-[1H-tetrazol-5-yl]biphenyl-4-yl)methyl]amino}pyrimidine-5-carboxylic acid]

same assay, conditions: antagonist incubated 30 minutes, negative logarithm of antagonist concentration that requires doubling of the angiotensin II concentration, read-out: pA2 (converted)

Structure (SMILES) | Kb [pM]
CCCN(Cc1ccc(-c2ccccc2-c2nn[nH]n2)cc1)c1nc(C(F)(F)F)ncc1C(=O)O [Example 114, 2-Trifluoromethyl-4-{N-propyl-N-[(2'-[1H-tetrazol-5-yl]biphenyl-4-yl)methyl]amino}pyrimidine-5-carboxylic acid] | 1620
CCCCN(Cc1ccc(-c2ccccc2-c2nnn[nH]2)cc1)c1ncncc1C(=O)OC(C)OC(=O)C1CCN(C)CC1 (stereo not shown) [Example 121, 1-(1-Methylpiperidin-4-ylcarbonyloxy)ethyl 4-{N-butyl-N-[(2'-[1H-tetrazol-5-yl]biphenyl-4-yl)methyl]amino}pyrimidine-5-carboxylate] | 257
CCCCN(Cc1ccc(-c2ccccc2-c2nn[nH]n2)cc1)c1ncc(C(=O)O)cn1 [Example 167, 2-{N-Butyl-N-[(2'-[1H-tetrazol-5-yl]biphenyl-4-yl)methyl]amino}pyrimidine-5-carboxylic acid] | 3310
CCCN(Cc1ccc(-c2ccccc2-c2nn[nH]n2)cc1)c1ncccc1C(=O)NS(=O)(=O)c1ccccc1 [Example 203, 2-{N-Propyl-N-[(2'-[1H-tetrazol-5-yl]biphenyl-4-yl)methyl]amino}pyridine-3-(N-benzenesulfonyl)carboxamide] | 2240
CCCCN(Cc1ccc(-c2ccccc2-c2nnn[nH]2)cc1)c1ncncc1C(=O)O [Example 53, 4-{N-butyl-N-[(2'-[1H-tetrazol-5-yl]biphenyl-4-yl)methyl]amino}pyrimidine-5-carboxylic acid hydrochloride] | 126
CCCCN(Cc1ccc(-c2ccccc2-c2nnn[nH]2)cc1)c1nc(OC)ccc1C(=O)O [Example 163, 2-{N-Butyl-N-[(2' -[1H-tetrazol-5-yl]biphenyl-4-yl)methyl]amino}-6-methoxypyridine-3-carboxylic acid] | 309
CCCCN(Cc1ccc(-c2ccccc2-c2nnn[nH]2)cc1)c1nc(F)ccc1C(=O)O [Example 162, 2-{N-Butyl-N-[(2'-[1H-tetrazol-5-yl]biphenyl-4-yl)methyl]amino}-6-fluoropyridine-3-carboxylic acid] | 309
CCCCN(Cc1ccc(-c2ccccc2-c2nnn[nH]2)cc1)c1ncncc1C(=O)OCOC(=O)C(C)(C)C [Example 82, Pivaloyloxymethyl 4-{N-butyl-N-[(2'-[1H-tetrazol-5-yl]biphenyl-4-yl)methyl]amino}pyrimidine-5-carboxylate] | 331
CCCN(Cc1ccc(-c2ccccc2-c2nnn[nH]2)cc1)c1ncccc1C(=O)C(F)(F)C(=O)OCC [Example 137, 3-[2,2-Difluoro-2-(ethoxycarbonyl)acetyl]-2-{N-propyl-N-[(2'-[1H-tetrazol-5-yl]biphenyl-4-yl]methyl]amino}pyridine] | 4570
CCCCN(Cc1ccc(-c2ccccc2-c2nn[nH]n2)cc1)c1nnc(Cl)cc1C(=O)O [Example 168, 6-{N-Butyl-N-[(2'-[1H-tetrazol-5-yl]biphenyl-4-yl)methyl]amino}-3-chloropyridazine-5-carboxylic acid] | 851
O=C(O)c1cccnc1NCc1ccc(-c2ccccc2-c2nn[nH]n2)cc1 [Example 226] | 1290

More lines, now with the values ahead:

Kb [pM] | Structure (SMILES)
209 | CCCN(Cc1ccc(-c2ccccc2-c2nn[nH]n2)cc1)c1ncncc1C(=O)O [Example 71, 4-{N-Propyl-N-[(2'-[1H-tetrazol-5yl]biphenyl-4-yl)methyl]amino}pyrimidine-5-carboxylic acid hydrochloride]
3390 | CCCN(Cc1ccc(-c2ccccc2-c2nn[nH]n2)cc1)c1ncccc1C(O)C(F)(F)C(=O)OCC (stereo not shown) [Example 135, 3-(2.2-Difluoro-2-ethoxycarbonyl-1-hydroxyethyl)-2-{N-propyl-N-[(2'-[1H-tetrazol-5-yl]biphenyl-4-yl)methyl]amino}pyridine]
1450 | CCCN(Cc1ccc(-c2ccccc2-c2nn[nH]n2)cc1)c1ncccc1C(O)CC(=O)O (stereo not shown) [Example 140, 3-(2-Carboxy-1-hydroxyethyl)-2-{N-propyl-N-[(2'-[1H-tetrazol-5-yl]biphenyl-4-yl)methyl]amino}pyridine]
631 | CCCN(Cc1ccc(-c2ccccc2-c2nn[nH]n2)cc1)c1ncccc1NS(=O)(=O)C(F)(F)F [Example 147, 3-Trifluoromethanesulfonamido-2-{N-propyl-N-[(2'-[1H-tetrazol-5-yl]biphenyl-4-yl)methyl]amino}pyridine]
89.1 | CCCCN(Cc1ccc(-c2ccccc2-c2nn[nH]n2)cc1)c1nnccc1C(=O)O [Example 169, 3-{N-Butyl-N-[(2'-[1H-tetrazol-5-yl]biphenyl-4-yl)methyl]amino}pyridazine-4-carboxylic acid]
234 | CCCN(Cc1ccc(-c2ccccc2-c2nn[nH]n2)cc1)c1nc(F)ccc1C(=O)O [Example 160, 2-{N-Propyl-N-[(2'-[1H-tetrazol-5-yl]biphenyl-4-yl)methyl]amino}-6-fluoropyridine-3-carboxylic acid]
135 | CCCCN(Cc1ccc(-c2ccccc2-c2nn[nH]n2)cc1)c1nccnc1C(=O)O [Example 157, 3-{N-Butyl-N-[(2'-[1H-tetrazol-5-yl]biphenyl-4-yl)methyl]amino}pyrazine-2-carboxylic acid]
912 | CCCN(Cc1ccc(-c2ccccc2-c2nn[nH]n2)cc1)c1ncc(F)cc1C(=O)O [Example 180, 5-Fluoro-2-{N-propyl-N-[(2'-[1H-tetrazol-5-yl]biphenyl-4-yl)methyl]amino}pyridine-3-carboxylic acid]
339 | CCCCN(Cc1ccc(-c2ccccc2-c2nn[nH]n2)cc1)c1ncccc1C(=O)O [Example 229, 2-{N-Butyl-N-[(2'-[1H-tetrazol-5-yl]biphenyl-4-yl)methyl]amino}pyridine-3-carboxylic acid]
214 | CCCN(Cc1ccc(-c2ccccc2-c2nn[nH]n2)cc1)c1nnccc1C(=O)O [Example 172, 3-{N-Propyl-N-[(2'-[1H-tetrazol-5-yl]biphenyl-4-yl)methyl]amino}pyridazine-4-carboxylic acid]
229 | CCCN(Cc1ccc(-c2ccccc2-c2nn[nH]n2)cc1)c1nccc(C)c1C(=O)O [Example 194, 4-Methyl-2-{N-propyl-N-[(2'-[1H-tetrazol-5-yl]biphenyl-4-yl)methyl]amino}pyridine-3-carboxylic acid]

test system: hypertension and congestive heart failure; assay: not given; conditions: cited from earlier work

Structure (SMILES) | clinical efficacy
CCOC(=O)[C@H](CCc1ccccc1)N[C@@H](C)C(=O)N1CCC[C@H]1C(=O)O [enalapril] | clinical efficacy in treating hypertension and congestive heart failure
C[C@H](CS)C(=O)N1CCC[C@H]1C(=O)O [captopril] | clinical efficacy in treating hypertension and congestive heart failure
COc1ccc(C[C@H](NC(=O)CC(C)(C)N)C(=O)N[C@@H](Cc2cnc[nH]2)C(=O)N[C@@H](CC2CCCCC2)[C@@H](O)[C@@H](O)CC(C)C)cc1 [enalkiren] | clinical efficacy in treating hypertension and congestive heart failure
